Laboratory results taken from paper PMC5400251, “Effect of quinoline based 1,2,3-triazole and its structural analogues on growth and virulence attributes of Candida albicans” (PLoS ONE, 2017).
Converted amounts (≈) assume the structure as drawn. Like-named read-outs stand apart in the source and are kept apart here.

Assays:
[1] = system: C. albicans ATCC 90028, C. albicans D27 and C. albicans D15.9; assay: Growth assay (growth curve), all three strains; assay type: cell-based
Description: The C. albicans cells were freshly revived by subculture on the SD agar plate. A loopful of inoculum was introduced into the SD broth and cells were grown for 16 h at 37°C before use. Approximately 2×10^3 cells/mL were then inoculated into the freshly prepared 50 mL sterile SD medium. […] At predetermined time periods (0, 2, 4, 6, 8, 10, 12, 14, 16, 18, 20 22, and 24 after incubation with agitation at 37°C), 1 mL aliquot of each sample was removed from the conical flask and growth was measured tubidometrically at 600 nm using Thermo Multiskan spectrophotometer. Optical density was recorded for each concentration against time (h).

[2] = molecular target: T1, plasma membrane H+ ATPase (Candida albicans, UniProt P28877); assay: Proton extrusion measurement (H+ efflux); assay type: cell-based, C. albicans ATCC 90028
T1 construct: endogenous in cells; host or cells: C. albicans ATCC 90028; clinical isolates C. albicans D27 (FLC-susceptible) and D15.9 (FLC-resistant); mid-log phase whole cells
Description: The proton pumping activity of C. albicans was determined by monitoring acidification of external medium by measuring pH as describe earlier. In brief, the mid-log phase cells were harvested from SD medium by centrifugation at 3000 rpm for 15 min which is followed by three washings with phosphate buffer saline (PBS). A solution containing 0.1 M KCl and 0.1 mM CaCl2 in distilled water was prepared. Compounds 3a and 3b at the concentrations of 50 and 100 μg/mL were separately added in this solution. […] Initial pH was adjusted to 7.0 using 0.01 M HCl/NaOH. Approximately 0.2 g of cells were suspended in each set of solution. Suspension was kept in a double-jacketed glass container with constant stirring. Again, the pH of suspension was maintained as 7.0 for 1 min by using 0.01 N NaOH. The rate of H^+ extrusion was then monitored and calculated from the volume of 0.01 N NaOH consumed per min per mg weight of cells. Glucose has been reported as the stimulator of proton extrusion pump. Therefore above experiment was also repeated in the presence of 5 mM of glucose.

phospholipase secretion = assay: Phospholipase assay (egg yolk agar, Pz value); assay type: cell-based, C. albicans D15.9 (FLC-resistant)
Description: Phospholipase activity was performed using the method of Price et al. (1982) with minor modifications. The cells were incubated at 37°C for 18 h and then centrifuged at 3000 rpm for 5 min. The pellet obtained was washed with PBS twice to remove the residual culture medium. […] Volumes of 1 μL were placed at equidistant points on phospholipase agar media plates (1% peptone; 3% glucose; 5.73% NaCl; 0.055% CaCl2 with 10% (v/v) egg yolk emulsion) and incubated at 37°C for 4 days. The secretion of phospholipases was determined by the formation of opaque zones due to precipitation around the yeast colonies. The assay was conducted in duplicate. Pz values were calculated as follows: Pzvalue=diameterofcolony/diameterofcolony+diameterofzoneofprecipitaion

proteinase secretion [3] = assay: Proteinase assay (BSA agar, Pz value); assay type: cell-based, C. albicans D27 (FLC-susceptible); conditions: at MIC, 1 h exposure
Description: (§1) Following incubation, 1.5 mL of the yeast culture was taken into micro centrifuge tubes and centrifuged at 3000 rpm, for 5 min. The pellet obtained was washed by phosphate buffer saline (PBS) twice to remove the residual medium. […] Volumes of 1μL were placed at equidistant points on proteinase agar medium (0.1% yeast nitrogen base w/o amino acids; 0.145% ammonium sulfate; 2% glucose with 0.2% (w/v) BSA fraction V mixed into agar at ∼40°C) and incubated at 37°C for 3 days. The experiment was performed in duplicate. Secreted proteinase enzyme will degrade BSA and form zone of clearance around the yeast colonies. An index (Pz value) was used to represent the extent of proteinase activity by different strains of C. albicans. A Pz value of 1.0 depicts no enzyme activity. It was calculated as follows: Pzvalue=diameterofcolony/diameterofcolony+diameterofzoneofdegradation

[4] = system: C. albicans D39 (FLC-sensitive clinical isolate); assay: Broth dilution IC50 determination; assay type: cell-based; conditions: Candida albicans, 24 h; read-out: Anti-Candida Activity (IC50± S.D.) C. albicans D39
Description: (§2) Broth dilution technique was employed to determine the IC50 values of all the synthesized 1,2,3 triazole derivatives (3a-c) against C. albicans ATCC 90028, C. glabrata ATCC 90030, C. tropicalis ATCC 750 and four clinical isolates of C. albicans namely D27, D31, D39 (FLC-sensitive) and D15.9 (FLC-resistant). The strains were maintained on yeast extract:peptone:dextrose ([…]) nutrient agar (2.5%) slants at 4°C. The test compounds were dissolved in DMSO with less than 4% concentration of it in the final test volume. Different concentrations (1000… 7.8 μg/mL) of test compounds in Sabouraud dextrose (SD) broth medium were dispensed into the wells, then inoculated with the test organism with approx. 2.5 × 10^3 cells/mL and incubated at 37°C for 24 h. After incubation period, the optical density was measured at 600 nm by using Thermo Scientific Multiskan Go plate reader. […] All the experiments were done in triplicate at separate times.

[5] = system: C. albicans D27 (FLC-sensitive clinical isolate); assay: Broth dilution IC50 determination; assay type: cell-based; conditions: Candida albicans, 24 h; read-out: Anti-Candida Activity (IC50± S.D.) C. albicans D27
Description: as §2

C. albicans ATCC 90028 = assay: Broth dilution IC50 determination; assay type: cell-based; conditions: Candida albicans, ATCC90028, SD broth, 37°C, 24 h, OD 600 nm, read-out: Anti-Candida Activity (IC50± S.D.) C. albicans ATCC90028
Description: as §2

C. albicans = assay: Disk diffusion assay, appearance of zones (strains not distinguished); assay type: cell-based
Description: Disk diffusion assay was performed using C. albicans ATCC 90028 (standard), the two clinical isolates, C. albicans D27 (FLC-susceptible), and C. albicans D15.9 (FLC-resistant) for the lead inhibitors 3a and 3b. The C. albicans cells were inoculated into liquid SD medium and grown over night at 37°C. The cells were then centrifuged at 3000 rpm for 5 min, washed three times with PBS and then suspended in PBS again. Approximately, 10^5 cells/mL were inoculated into molten SD agar medium at 42°C and poured into 100-mm-diameter petriplates. Sterilized 4 mm disks of Whatman paper were placed on solid agar and 1, 2, and 4 μL of 3a and 2, 4, and 8 μL of 3b from the stock solution of 10 mg/mL were spotted on the disk. […] The diameter of zone of inhibition (ZOI) was recorded in millimetres after 48 h and was compared with that of control. This experiment was repeated thrice and values were shown in terms of mean ±standard error of mean.

proteinase secretion [6] = assay: Proteinase assay (BSA agar, Pz value); assay type: cell-based, C. albicans ATCC 90028; conditions: at MIC, 1 h exposure
Description: as §1

[7] = 50 μg/mL in presence of glucose (5 mM)
[8] = 100 μg/mL in presence of glucose (5 mM)
[9] = 100 μg/mL, no glucose, read-out: Inhibition of H+ extrusion
[10] = in the presence of glucose (5 mM), 100 μg/mL, read-out: Inhibition of H+ extrusion rate

T1 sequence (P28877 whole entry): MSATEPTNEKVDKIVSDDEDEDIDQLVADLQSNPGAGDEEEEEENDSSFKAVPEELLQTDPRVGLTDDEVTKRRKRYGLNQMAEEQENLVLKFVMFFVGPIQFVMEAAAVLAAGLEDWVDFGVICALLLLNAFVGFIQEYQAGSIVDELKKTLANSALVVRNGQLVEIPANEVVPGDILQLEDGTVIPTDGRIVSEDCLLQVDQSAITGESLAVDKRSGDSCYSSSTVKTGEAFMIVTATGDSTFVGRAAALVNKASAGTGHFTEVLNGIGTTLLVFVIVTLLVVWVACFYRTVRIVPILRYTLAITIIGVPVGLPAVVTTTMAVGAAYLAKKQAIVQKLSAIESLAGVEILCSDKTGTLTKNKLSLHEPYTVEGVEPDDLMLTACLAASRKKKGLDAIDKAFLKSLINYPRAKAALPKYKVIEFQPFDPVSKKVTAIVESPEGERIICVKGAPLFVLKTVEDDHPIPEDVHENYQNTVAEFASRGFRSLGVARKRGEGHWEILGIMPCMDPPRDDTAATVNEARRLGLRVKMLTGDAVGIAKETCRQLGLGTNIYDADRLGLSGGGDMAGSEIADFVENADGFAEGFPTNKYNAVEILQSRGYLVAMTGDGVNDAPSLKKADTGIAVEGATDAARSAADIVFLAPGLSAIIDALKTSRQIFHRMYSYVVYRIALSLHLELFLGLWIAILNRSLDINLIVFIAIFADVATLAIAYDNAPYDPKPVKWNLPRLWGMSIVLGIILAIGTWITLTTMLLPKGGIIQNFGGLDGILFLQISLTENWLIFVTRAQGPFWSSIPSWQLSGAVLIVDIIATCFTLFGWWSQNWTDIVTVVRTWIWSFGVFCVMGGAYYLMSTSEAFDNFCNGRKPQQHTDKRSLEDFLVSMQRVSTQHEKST

Row | Compound | Lag phase (no growth) ([1]; 2MIC, MIC and MIC/2, all three strains) | Range of relative H+ efflux rate [2, 7] | Range of relative H+ efflux rate ([2]; 50 μg/mL, no glucose) | Range of relative H+ efflux rate [2, 8] | Range of relative H+ efflux rate ([2]; 100 μg/mL, no glucose) | inhibition at 100 µg/mL [2, 9] [%] | inhibition at 100 µg/mL [2, 10] [%] | Decrease of phospholipase secretion (phospholipase secretion; at MIC, 1 h exposure) [%] | Decrease of phospholipase secretion (phospholipase secretion; at MIC/4, 1 h exposure) [%] | Decrease of proteinase secretion (proteinase secretion [3]) [%] | IC50 [4] [µg/mL] | IC50 [5] [µg/mL] | IC50 (C. albicans ATCC 90028) [µg/mL] | Appearance of zone around disks (clear = fungicidal nature, turbid = fungistatic nature) (C. albicans) | Decrease of proteinase secretion (proteinase secretion [6]) [%] | Growth inhibition ([1]; at 2MIC and MIC)
1 | c1ccc(Cn2cc(COc3cccc4cccnc34)nn2)cc1 [Compound 3a] | more than 24 h | 33.40 ± 1.6 ×10^−6 mol min^−1 mg cells^−1 | 19.60 ± 0.9 ×10^−6 mol min^−1 mg cells^−1 | 26.60 ± 1.3 ×10^−6 mol min^−1 mg cells^−1 | 11.00 ± 0.5 ×10^−6 mol min^−1 mg cells^−1 | 70 | 52 | 34 | 25 | 30 | 4.1 ± 0.02 (≈ 13 µM) | 1.9 ± 0.09 (≈ 6.01 µM) | 0.044 ± 0.11 (≈ 0.139 µM) | clear | 21 | –
2 | Clc1ccc(OCc2cn(Cc3ccccc3)nn2)c2ncccc12 [Compound 3b, 8-((1-Benzyl-1H-1,2,3-triazol-4-yl)methoxy)-5-chloroquinoline] | – | 23.30 ± 1.1 ×10^−6 mol min^−1 mg cells^−1 | 23.40 ± 1.1 ×10^−6 mol min^−1 mg cells^−1 | 20.00 ± 1.0 ×10^−6 mol min^−1 mg cells^−1 | 19.30 ± 0.9 ×10^−6 mol min^−1 mg cells^−1 | 47 | 64 | 30 | 25 | 22 | 47.1 ± 0.39 (≈ 134 µM) | 33.7 ± 1.51 (≈ 96.1 µM) | 25.4 ± 0.76 (≈ 72.4 µM) | turbid | 14 | significant growth inhibition
